In ChEMBL document CHEMBL1149529 (Bioorg Med Chem Lett, 2007):

What was measured:
[1] = Clearance in rat at 5 mg/kg, iv; type: ADME, organism-based; set-up: dose 5 mg/kg, route intravenous; details: in vivo
[2] = Oral bioavailability in rat at 15 mg/kg, po; type: ADME, organism-based; details: in vivo

Row | SMILES | clearance [1] | bioavailability [2]
1 | Cc1c(CN(C)C[C@@H](O)c2ccccn2)sc2c(=O)c(C(=O)NCc3ccc(Cl)cc3)cn(C)c12 | 23.3 mL/min/kg | 30%
2 | Cc1c(CN(C)C[C@@H](O)c2ncccn2)sc2c(=O)c(C(=O)NCc3ccc(F)cc3)cn(C)c12 | 35 mL/min/kg | 29%
3 | CN(CC1=CC2C(=O)C(C(=O)NCc3ccc(Cl)cc3)=CN(C)C2S1)C[C@@H](O)c1ccccn1 (stereo partly specified) | 46.7 mL/min/kg | 45%
